Experimental data: patent US20240415819A1, “MACROCYCLIC COMPOUNDS AS PROTEASOME SUBUNIT BETA TYPE-5 INHIBITORS” (Lead Discovery Center GmbH, priority 2021, published 2024)

Tested on: hPMBC
Assay: Chymotrypsin-like ProteasomeGlo assay in hPBMC
Format: cell-based
Conditions: Homo sapiens; read-out: Pglo hPBMC
In short: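 B cells isolated from human PBMC (buffy coats, density gradient, magnetic isolation). Cells treated with compound for 105 min at 37 °C, with staurosporine and DMSO included. Chymotrypsin-like proteasome activity read by luminescence with Suc-LLVY-Glo substrate to derive IC50.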

SMILES	IC50
COc1cccc(CC(=O)N[C@H]2CC(=O)N3CCCC(CCOc4ccc(C)c(c4)CNC(=O)C(c4cnn(C)c4)NC2=O)C3)c1 (stereo partly drawn) [Compound 362, 2-(3-methoxyphenyl)-N-((12S)-5^4-methyl-9-(1-methyl-1H-pyrazol-4-yl)-8,11,14-trioxo-4-oxa-7,10-diaza-1(3,1)-piperidina-5(1,3)-benzenacyclotetradecaphane-12-yl)acetamide]	< 100 nM
Cc1ccc2cc1CNC(=O)C(CCc1ccncc1)NC(=O)[C@@H](NC(=O)OCc1ccccc1)CC(=O)N1CCCC(CCO2)C1 (stereo partly drawn) [Compound 336, benzyl ((12S)-5^4-methyl-8,11,14-trioxo-9-(2-(pyridin-4-yl)ethyl)-4-oxa-7,10-diaza-1(3,1)-piperidina-5(1,3)-benzenacyclotetradecaphane-12-yl)carbamate]	< 100 nM
CC(=O)N[C@H]1CC(=O)N2CCCC(CCOc3ccc(C)c(c3)CNC(=O)C(c3ccc4ncccc4c3)NC1=O)C2 (stereo partly drawn) [Compound 554, N-((12S)-5^4-methyl-8,11,14-trioxo-9-(quinolin-6-yl)-4-oxa-7,10-diaza-1(3,1)-piperidina-5(1,3)-benzenacyclotetradecaphane-12-yl)acetamide]	100 to 500 nM
CC(=O)N[C@H]1CC(=O)N2CCCC(CCOc3ccc(C)c(c3)CNC(=O)C(c3cc(C)sn3)NC1=O)C2 (stereo partly drawn) [Compound 556, N-((12S)-5^4-methyl-9-(5-methylisothiazol-3-yl)-8,11,14-trioxo-4-oxa-7,10-diaza-1(3,1)-piperidina-5(1,3)-benzenacyclotetradecaphane-12-yl)acetamide]	< 100 nM
Cc1ccc2cc1CNC(=O)[C@H](CCc1ccccc1)NC(=O)[C@@H](NC(=O)Cc1csc(N)n1)CC(=O)N1CCCC(CCO2)C1 (stereo partly drawn) [Compound 302, 2-(2-aminothiazol-4-yl)-N-((9S,12S)-5^4-methyl-8,11,14-trioxo-9-phenethyl-4-oxa-7,10-diaza-1(3,1)-piperidina-5(1,3)-benzenacyclotetradecaphane-12-yl)acetamide]	< 100 nM
Cc1ccc2cc1CNC(=O)[C@H](CCc1ccccc1)NC(=O)[C@@H](NC(=O)Cc1nnc(N)s1)CC(=O)N1CCCC(CCO2)C1 (stereo partly drawn) [Compound 310, 2-(5-amino-1,3,4-thiadiazol-2-yl)-N-((9S,12S)-54-methyl-8,11,14-trioxo-9-phenethyl-4-oxa-7,10-diaza-1(3,1)-piperidina-5(1,3)-benzenacyclotetradecaphane-12-yl)acetamide]	< 100 nM
CC(=O)N[C@H]1CC(=O)N2CCCC(CCOc3ccc(C)c(c3)CNC(=O)C(c3cnn(C)c3)NC1=O)C2 (stereo partly drawn) [Compound 552, N-((12S)-5^4-methyl-9-(1-methyl-1H-pyrazol-4-yl)-8,11,14-trioxo-4-oxa-7,10-diaza-1(3,1)-piperidina-5(1,3)-benzenacyclotetradecaphane-12-yl)acetamide]	< 100 nM
Cc1ccc2cc1CNC(=O)C(c1cnn(C)c1)NC(=O)[C@@H](NC(=O)[C@@H](C)c1ccccc1)CC(=O)N1CCCC(CCO2)C1 (stereo partly drawn) [Compound 359, (2S)-N-((12S)-5^4-methyl-9-(1-methyl-1H-pyrazol-4-yl)-8,11,14-trioxo-4-oxa-7,10-diaza-1(3,1)-piperidina-5(1,3)-benzenacyclotetradecaphane-12-yl)-2-phenylpropanamide]	< 100 nM
CC(=O)N[C@H]1CC(=O)N2CCCC(CCOc3ccc(C)c(c3)CNC(=O)C(CCc3ccncc3)NC1=O)C2 (stereo partly drawn) [Compound 551, N-((12S)-5^4-methyl-8,11,14-trioxo-9-(2-(pyridin-4-yl)ethyl)-4-oxa-7,10-diaza-1(3,1)-piperidina-5(1,3)-benzenacyclotetradecaphane-12-yl)acetamide]	< 100 nM
